For one compound, LD50 results are on record in ChEMBL document CHEMBL1136131, “Synthesis of poly(ethylene glycol) with sulfadiazine and chlorambucil end groups and investigation of its antitumor activity” (Bioorg Med Chem Lett, 2003).

The nature of the data set: Acute toxicity in mice. Conditions: mouse, in vivo.

SMILES strings stand for the structures.

For the compound `O=C(O)CCCc1ccc(N(CCCl)CCCl)cc1` [CHLORAMBUCIL], the LD50 came to 49.54 mg⁻¹ kg⁻¹.
